Experimental data published in US6387922B2, “Annulated azole derivatives useful as microbicidal agents” (Bayer Aktiengesellschaft, priority 1997, dated 2002).

Assays:
Venturia inaequalis = test: Venturia Test (Apple)/protective; format: in vivo; settings: apple young plants, protective spray, application rate 100 g/ha, evaluation 12 days after inoculation; 0% = as control, 100% = no infection
Description: Venturia Test (Apple)/protective
(§1) Solvent: 47 parts by weight of acetone
(§2) Emulsifier: 3 parts by weight of alkyl-aryl polyglycol ether
To produce a suitable preparation of active compound, 1 part by weight of active compound is mixed with the stated amounts of solvent and emulsifier, and the concentrate is diluted with water to the desired concentration.
To test for protective activity, young plants are sprayed with the preparation of active compound at the stated application rate. After the spray coating has dried on, the plants are inoculated with an aqueous conidia suspension of the causative organism of apple scab Venturia inaequalis and then remain in an incubation cabin at approximately 20° C. and 100% relative atmospheric humidity for 1 day.
The plants are then placed in a greenhouse at approximately 21° C. and a relative atmospheric humidity of approximately 90%.
Evaluation is carried out 12 days after the inoculation. 0% means an efficacy which corresponds to that of the control, whereas an efficacy of 100% means that no infection is observed.

Plasmopara viticola = test: Plasmopara Test (grapevine)/protective; format: in vivo; settings: grapevine young plants, protective spray, application rate 100 g/ha, evaluation 6 days after inoculation; 0% = as control, 100% = no infection
Description: Plasmopara Test (grapevine)/protective
as §1, §2
To produce a suitable preparation of the active compound, 1 part by weight of active compound is mixed with the stated amounts of solvent and emulsifier, and the concentrate is diluted with water to the desired concentration.
To test for protective activity, young plants are sprayed with a preparation of active compound at the stated application rate. After the spray coating has dried on, the plants are inoculated with an aqueous spore suspension of Plasmopara viticola and then remain in an incubation cabin at approximately 20° C. and 100% relative atmospheric humidity for 1 day. The plants are then placed in a greenhouse at approximately 21° C. and approximately 90% atmospheric humidity for 5 days. The plants are then moistened and placed in an incubation cabin for 1 day.
Evaluation is carried out 6 days after the inoculation. 0% means an efficacy which corresponds to that of the control, whereas an efficacy of 100% means that no infection is observed.

| Compound | Efficacy in % (Venturia inaequalis) [%] | melting point [°C] | Efficacy in % (Plasmopara viticola) [%] |
| --- | --- | --- | --- |
| Cc1noc(C)c1S(=O)(=O)n1cnc2cnccc21 [Example 2, 1-(3,5-dimethyl-isoxazole-4-sulphonyl)-1H-imidazo[4,5-c]pyridine] | 95 | 130 to 135 | 90 |
| Cc1noc(C)c1S(=O)(=O)n1nnc2ccccc21 [1-(3,5-dimethyl-isoxazol-4-sulphonyl)-1H-benzotriazole, reference compound] | 0 | – | 49 |
